Measurements published in PubChem BioAssay (NCI).
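Following 48 hours of exposure in 96-well plates, responses at five concentrations were used to interpolate endpoints linearly. GI50 is the concentration that inhibits growth by half. TGI is the concentration that stops growth completely.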

Experiments:
Experiment in all cases: DTP human tumour cell line panel, 48 h
A498 renal = tested on: A498 renal
A549 NSCLC = tested on: A549 NSCLC
ACHN renal = tested on: ACHN renal
BT-549 breast = tested on: BT-549 breast
CAKI-1 renal = tested on: CAKI-1 renal
CCRF-CEM leukemia = tested on: CCRF-CEM leukemia
DU-145 prostate = tested on: DU-145 prostate
EKVX NSCLC = tested on: EKVX NSCLC
HCC-2998 colon = tested on: HCC-2998 colon
HCT-116 colon = tested on: HCT-116 colon
HCT-15 colon = tested on: HCT-15 colon
HL-60(TB) leukemia = tested on: HL-60(TB) leukemia
HOP-62 NSCLC = tested on: HOP-62 NSCLC
HOP-92 NSCLC = tested on: HOP-92 NSCLC
IGROV1 ovarian = tested on: IGROV1 ovarian
K-562 leukemia = tested on: K-562 leukemia
KM12 colon = tested on: KM12 colon
LOX IMVI melanoma = tested on: LOX IMVI melanoma
M14 melanoma = tested on: M14 melanoma
MALME-3M melanoma = tested on: MALME-3M melanoma
MCF7 breast = tested on: MCF7 breast
MDA-MB-435 = tested on: MDA-MB-435
MOLT-4 leukemia = tested on: MOLT-4 leukemia
NCI-H23 lung = tested on: NCI-H23 lung
NCI-H460 lung = tested on: NCI-H460 lung
NCI-H522 lung = tested on: NCI-H522 lung
OVCAR-3 ovarian = tested on: OVCAR-3 ovarian
OVCAR-4 ovarian = tested on: OVCAR-4 ovarian
OVCAR-5 ovarian = tested on: OVCAR-5 ovarian
OVCAR-8 ovarian = tested on: OVCAR-8 ovarian
PC-3 prostate = tested on: PC-3 prostate
SF-295 CNS = tested on: SF-295 CNS
SF-539 CNS = tested on: SF-539 CNS
SK-MEL-2 melanoma = tested on: SK-MEL-2 melanoma
SK-MEL-28 melanoma = tested on: SK-MEL-28 melanoma
SK-MEL-5 melanoma = tested on: SK-MEL-5 melanoma
SK-OV-3 ovarian = tested on: SK-OV-3 ovarian
SN12C renal = tested on: SN12C renal
SNB-19 CNS = tested on: SNB-19 CNS
SNB-75 CNS = tested on: SNB-75 CNS
SW-620 colon = tested on: SW-620 colon
TK-10 renal = tested on: TK-10 renal
U251 CNS = tested on: U251 CNS
UACC-257 melanoma = tested on: UACC-257 melanoma
UACC-62 melanoma = tested on: UACC-62 melanoma
UO-31 renal = tested on: UO-31 renal

Cc1ccc(C2CC(c3cccc(Nc4ccncc4)c3)=NN2c2cc(Cl)cc(Cl)c2)cc1 (configuration not stated)
GI50 (A498 renal): 1210 nM | TGI (A498 renal): 2470 nM | GI50 (A549 NSCLC): 1780 nM | TGI (A549 NSCLC): 3600 nM | GI50 (ACHN renal): 1650 nM | TGI (ACHN renal): 3000 nM | GI50 (BT-549 breast): 1740 nM | TGI (BT-549 breast): 3380 nM | GI50 (CAKI-1 renal): 1540 nM | TGI (CAKI-1 renal): 3030 nM | GI50 (CCRF-CEM leukemia): 3470 nM | TGI (CCRF-CEM leukemia): > 100000 nM | GI50 (DU-145 prostate): 1900 nM | TGI (DU-145 prostate): 3520 nM | GI50 (EKVX NSCLC): 1550 nM | TGI (EKVX NSCLC): 2940 nM | GI50 (HCC-2998 colon): 1520 nM | TGI (HCC-2998 colon): 2850 nM | GI50 (HCT-116 colon): 1850 nM | TGI (HCT-116 colon): 3850 nM | GI50 (HCT-15 colon): 1670 nM | TGI (HCT-15 colon): 3100 nM | GI50 (HL-60(TB) leukemia): 1830 nM | TGI (HL-60(TB) leukemia): 4110 nM | GI50 (HOP-62 NSCLC): 1910 nM | TGI (HOP-62 NSCLC): 4530 nM | GI50 (HOP-92 NSCLC): 1370 nM | TGI (HOP-92 NSCLC): 2780 nM | GI50 (IGROV1 ovarian): 1690 nM | TGI (IGROV1 ovarian): 3230 nM | GI50 (K-562 leukemia): 1850 nM | TGI (K-562 leukemia): 4580 nM | GI50 (KM12 colon): 1650 nM | TGI (KM12 colon): 3040 nM | GI50 (LOX IMVI melanoma): 1550 nM | TGI (LOX IMVI melanoma): 2890 nM | GI50 (M14 melanoma): 1930 nM | TGI (M14 melanoma): 3990 nM | GI50 (MALME-3M melanoma): 1670 nM | TGI (MALME-3M melanoma): 3250 nM | GI50 (MCF7 breast): 1890 nM | TGI (MCF7 breast): 4100 nM | GI50 (MDA-MB-435): 1660 nM | TGI (MDA-MB-435): 3110 nM | GI50 (MOLT-4 leukemia): 1940 nM | TGI (MOLT-4 leukemia): 4440 nM | GI50 (NCI-H23 lung): 1760 nM | TGI (NCI-H23 lung): 3350 nM | GI50 (NCI-H460 lung): 1830 nM | TGI (NCI-H460 lung): 3550 nM | GI50 (NCI-H522 lung): 1730 nM | TGI (NCI-H522 lung): 3580 nM | GI50 (OVCAR-3 ovarian): 1720 nM | TGI (OVCAR-3 ovarian): 3230 nM | GI50 (OVCAR-4 ovarian): 1580 nM | TGI (OVCAR-4 ovarian): 3100 nM | GI50 (OVCAR-5 ovarian): 1650 nM | TGI (OVCAR-5 ovarian): 3060 nM | GI50 (OVCAR-8 ovarian): 2210 nM | TGI (OVCAR-8 ovarian): 5240 nM | GI50 (PC-3 prostate): 1580 nM | TGI (PC-3 prostate): 3200 nM | GI50 (SF-295 CNS): 1720 nM | TGI (SF-295 CNS): 3100 nM | GI50 (SF-539 CNS): 1650 nM | TGI (SF-539 CNS): 3050 nM | GI50 (SK-MEL-2 melanoma): 2000 nM | TGI (SK-MEL-2 melanoma): 3990 nM | GI50 (SK-MEL-28 melanoma): 1770 nM | TGI (SK-MEL-28 melanoma): 3300 nM | GI50 (SK-MEL-5 melanoma): 1760 nM | TGI (SK-MEL-5 melanoma): 3170 nM | GI50 (SK-OV-3 ovarian): 1680 nM | TGI (SK-OV-3 ovarian): 3380 nM | GI50 (SN12C renal): 1710 nM | TGI (SN12C renal): 3240 nM | GI50 (SNB-19 CNS): 1720 nM | TGI (SNB-19 CNS): 3450 nM | GI50 (SNB-75 CNS): 1230 nM | TGI (SNB-75 CNS): 2620 nM | GI50 (SW-620 colon): 1690 nM | TGI (SW-620 colon): 3260 nM | GI50 (TK-10 renal): 1640 nM | TGI (TK-10 renal): 3070 nM | GI50 (U251 CNS): 1860 nM | TGI (U251 CNS): 3880 nM | GI50 (UACC-257 melanoma): 1880 nM | TGI (UACC-257 melanoma): 3830 nM | GI50 (UACC-62 melanoma): 1770 nM | TGI (UACC-62 melanoma): 3250 nM | GI50 (UO-31 renal): 1310 nM | TGI (UO-31 renal): 2590 nM
